Each structure is given as a SMILES string.

We go through five molecules from US12133855B2, “Lipid-like nanocomplexes and uses thereof” (Trustees of Tufts College, priority 2018, dated 2024).

The nature of data set [1]: TEM size of lipidoid nanoparticles. The settings on record: TEM images of LNPs. The class given is physicochemical. The method, then: All chemicals used for lipidoids synthesis were purchased from Sigma-Aldrich without further purification unless otherwise noted. (−30)GFP-Cre recombinase, S. pyogenes Cas9 (spCas9) and sgRNA were generated following the protocols reported in Wang at al., Proc. Natl. Acad. Sci. USA, 2016, 113, 2868-2873 (“Wang”). HeLa-DsRed and GFP-HEK cells were cultured in Dulbecco's modified eagle's medium (DMEM, Sigma-Aldrich) with 10% fetal bovine serum (FBS, Sigma-Aldrich) and 1% penicillin-streptomycin (Gibco). All ^1H NMR spectra were recorded on a Bruker AVIII 500 MHz NMR spectrometer operated in the Fourier transform mode. Hydrodynamic size and polydispersity index of nanoparticles were measured by Zeta-PALS particle size analyzer (Brookhaven Instruments). The apparent pKa values of lipidoids were determined using 2-(p-toluidinynaphthalene-6-sulphonic acid) (TNS, Sigma-Aldrich) as fluorescent probe following the protocols reported in Heyes et al., J. Controlled Release, 2005, 107, 276-287. TEM measurements were performed on a FEI Technai Transmission Electron Microscope. Fluorescence images of tissue slices were obtained using BZ-X Analyzer fluorescence microscope.
(§1) The morphologies of LNPs were further studied by the transmission electron microscopy (TEM). […] Subsequently, the stability of LNPs thus prepared was examined by DLS and fluorescence measurements.
The morphologies of OCholB fully substituted LNPs were then examined by transmission electron microscopy (TEM). […] In contrast, the vesicular structures were not well-formed for 87-OCholB and 90-OCholB compared to their counterparts, and amorphous aggregates were observed instead.

A short description of data set [2]: Storage stability of LNPs (time-dependent DLS, DiO/DiI FRET). The format is physicochemical. Particulars: DiO and DiI encapsulated LNPs, 7 days of storage. The method, then:
as §1
The cell (HeLa and HeLa-DsRed cell lines) internalization studies were conducted using small molecular hydrophobic (nile red) and hydrophilic (calcein) fluorescent dyes and macromolecular fluorescent recombinant protein ((−30)GFP-Cre) loaded OCholB LNPs. The stabilities of cargo-loaded LNPs were examined at first using time-dependent DLS and fluorescence measurements.

Data set [3] can be described thus: In vivo toxicity of blank OCholB LNPs (body weight, serum biochemistry). Further details: species or system Balb/c mice. Particulars: blank LNPs 50 μg per injection, tail vein; for serum concentrations of creatinine, urea, AST and ALT: day 1 and 5, blood at day 14; for body weight vs untreated control group: day 1 and day 5, 14 days. As to the method:
For in vivo toxicity studies, the body weights of untreated and nanoparticles injected Balb/c mice (housed in a temperature and humidity controlled facility with a 12 h light/dark cycle) were measured at day 1, 3, 5, 7, 9, 11, 13 and 14. Biological functions of kidney and liver were examined by the serum biochemical tests and concentrations of creatinine, urea, aspartate aminotransferase (AST), and alanine aminotransferase (ALT) were measured using corresponding detection kits (MilliporeSigma) following manufacturers' protocols.
The in vivo toxicity of the OCholB LNPs was further examined by measuring body weight change and biological functions of kidney and liver through serum biochemical tests using Balb/c mice. 4-6 weeks old Balb/c mice (n=3) were injected with blank 75-OCholB, 76-OCholB and 77-OCholB LNPs (50 μg LNPs for each injection) through tail vein at day 1 and day 5, body weights were monitored for 14 days, and blood were collected and analyzed at day 14.

Data set [4] deals with B16F10 (mouse melanoma cells). Briefly: GFP mRNA delivery (GFP+ cells). The format is cell-based. Particulars: LNP/mRNA=10/1, [mRNA]=0.86 μg mL^−1, 24 h. As to the method:
(§2) To examine the delivery spectrum of the newly developed LNPs, the GFP mRNA loaded OCholB LNPs were then challenged against other four types of cell lines. B16F10 (mouse melanoma cells), HEK 293 (human embryonic kidney cells), NIH 3T3 (mouse embryonic fibroblast cells) and Jurkat (human T lymphocyte cells) cells were tested (LNP/mRNA=10/1; [mRNA]=0.86 μg mL^−1; 24 h exposure) and the results are shown in FIG. 14D. As the positive control, Lpf2k turned out to be very efficient to deliver GFP mRNA into B16F10 (63.2% of GFP^+ cells), HEK 293 (80.1%) and NIH 3T3 (70.1%) cells, while slightly less efficient to Jurkat cell (28.7%), which is usually considered to be one of the most difficult-to-transfect cell lines. […] For example, 63.0%, 60.9%, 54.1% and 50.1% of GFP^+ cells were determined from mRNA/75-OCholB treated B16F10, HEK 293, NIH 3T3 and Jurkat cells; and the numbers for mRNA/76-OCholB treated cells were 70.7%, 75.8%, 24.1% and 7.7%, respectively. It was obvious that not only the types of lipidoids, but also the target cell lines could have huge impacts on the delivery efficacy. Overall, the positive control, Lpf2k, is a relatively high-activity broad-spectrum transfection reagent; most of the OCholB LNPs (6 out of 9) are also effective broad-spectrum transfection reagents under the tested conditions. […] It was expected that through further formulation optimization, such as adding excipients (helper lipids like small molecular phospholipids (e.g. DOPE and DSPC) and macromolecules lipids (e.g. PEG-DSPE and PEG-Ceramide)) into the LNPs and/or using more controllable self-assembly procedures, improved transfection efficiency of the fully substituted OCholB LNPs could be achieved.

In data set [5] the test system is NIH 3T3 (mouse embryonic fibroblast cells). The experiment in a line: GFP mRNA delivery (GFP+ cells). Particulars: LNP/mRNA=10/1, [mRNA]=0.86 μg mL^−1, 24 h. The format is cell-based. As to the method:
as §2

The test system of data set [6] is HEK 293 (human embryonic kidney cells). The experiment in a line: GFP mRNA delivery (GFP+ cells). Particulars: LNP/mRNA=10/1, [mRNA]=0.86 μg mL^−1, 24 h. The class given is cell-based. The method, then:
as §2

As for `CCN(CC)CCCN(CCC(=O)OCCSSCCNC(=O)OC1CCC2(C)C(=CCC3C2CCC2(C)C(C(C)CCCC(C)C)CCC32)C1)CCC(=O)OCCSSCCNC(=O)OC1CCC2(C)C(=CCC3C2CCC2(C)C(C(C)CCCC(C)C)CCC32)C1` (centres unmarked) [Lipidoid 81-OCholB], the “size measured by TEM” value in data set [1] was determined as 216.9 nm.
Turning to `CC(C)CCCC(C)C1CCC2C3CC=C4CC(OC(=O)NCCSSCCOC(=O)CCN(CCC(=O)OCCSSCCNC(=O)OC5CCC6(C)C(=CCC7C6CCC6(C)C(C(C)CCCC(C)C)CCC76)C5)CCN5CCCC5)CCC4(C)C3CCC12C` (centres unmarked) [Lipidoid 76-OCholB], the “FRET ratio (I575/I575+I505) variations” value in data set [2] is reported as “negligible variations”. Also, the “serum concentrations of creatinine, urea, AST and ALT” value (“serum concentrations of creatinine” below) in data set [3] is reported as “very similar to control mice”. Besides, in data set [3], the “body weight vs untreated control group” value is “negligible differences”. Moreover, the “GFP^+ cells” value worked out at 70.7% in data set [4], 24.1% in data set [5] and 75.8% in data set [6].
Take `CCN(CC)CCN(CCC(=O)OCCSSCCNC(=O)OC1CCC2(C)C(=CCC3C2CCC2(C)C(C(C)CCCC(C)C)CCC32)C1)CCC(=O)OCCSSCCNC(=O)OC1CCC2(C)C(=CCC3C2CCC2(C)C(C(C)CCCC(C)C)CCC32)C1` (centres unmarked) [Lipidoid 75-OCholB]: the “FRET ratio (I575/I575+I505) variations” value in data set [2] is reported as “negligible variations”. In data set [3], the “serum concentrations of creatinine” value is given as “very similar to control mice”. In data set [3], the “body weight vs untreated control group” value is reported as “negligible differences”. Also, the results for the “GFP^+ cells” value in data set [4], in data set [5] and in data set [6] were 63.0%, 54.1% and 60.9%, respectively.
On to `CC(C)CCCC(C)C1CCC2C3CC=C4CC(OC(=O)NCCSSCCOC(=O)CCN(C)CCN(CCN(C)CCC(=O)OCCSSCCNC(=O)OC5CCC6(C)C(=CCC7C6CCC6(C)C(C(C)CCCC(C)C)CCC76)C5)CCN(C)CCC(=O)OCCSSCCNC(=O)OC5CCC6(C)C(=CCC7C6CCC6(C)C(C(C)CCCC(C)C)CCC76)C5)CCC4(C)C3CCC12C` (centres unmarked) [Lipidoid 304-OCholB], for which the “size measured by TEM” value in data set [1] is 394.0 nm.
As to `CC(C)CCCC(C)C1CCC2C3CC=C4CC(OC(=O)NCCSSCCOC(=O)CCN(CCC(=O)OCCSSCCNC(=O)OC5CCC6(C)C(=CCC7C6CCC6(C)C(C(C)CCCC(C)C)CCC76)C5)CCC5CCCN5C)CCC4(C)C3CCC12C` (centres unmarked) [Lipidoid 77-OCholB], the “FRET ratio (I575/I575+I505) variations” value in data set [2] is given as “negligible variations”. In data set [3], the “serum concentrations of creatinine” value is listed as “very similar to control mice”; the “body weight vs untreated control group” value was “negligible differences”.
